Results from EP0973746B1, “SUBSTITUTED 3-CYANO QUINOLINES” (Wyeth Holdings Corporation, priority 1997, dated 1998).
≈ marks a conversion by molar mass, not a printed value. Where two headings read alike, the source gives them in different places.

Tests used:
[1] = molecular target: recombinant human MEK 1 (MAPKK) and recombinant human ERK2 (MAPK); test: Mitogen Activated Protein Kinase (MAPK) assay, two component coupled MEK 1 / ERK2; assay type: biochemical; settings: separate entries for the same compound = evaluated more than one time;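 further: MEK 1-activated ERK2 phosphorylates MBP or Myc peptide with 33P-ATP, filter capture and scintillation counting, inhibitor preincubated with ERK2 30 min at 0 °C, inhibition relative to uninhibited control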
[2] = system: SW948; test: Inhibition of cancer cell growth as measured by cell number, SW948; assay type: cell-based; settings: Homo sapiens, read-out: IC50 SW948
[3] = system: A27805; test: Inhibition of cancer cell growth as measured by cell number, A27805; assay type: cell-based; settings: Homo sapiens, read-out: IC50 A27805
[4] = system: NHEK; test: Inhibition of cell growth by incorporation of [3H]-thymidine, NHEK; assay type: cell-based, human; settings: Homo sapiens, read-out: IC50 NHEK
Procedure: (§1) Representative compounds of this invention were evaluated for their ability to inhibit the growth of the cell lines described below in vitro. The inhibition is quantitated by measuring the decrease in the incorporation of radio-labeled thymidine when the cells are grown in the presence of the inhibitor. […] Cells were routinely grown in a humidified incubator in 5% CO2 in air.
(§2) Cells were seeded at 10,000 cells/well in 96 well plates in complete media and allowed to grow to log phase. At this stage the complete media was replaced with media containing 0.5% FBS (for cells growing in 10% FBS) or media lacking epidermal growth factor (EGF) (for cells growing in serum free media). […] Media with test compound was then removed and complete media was added back. The cells were allowed to grow for 18 hours. This is followed by incubation in [^3H]thymidine (1mCi/ml in serum/EGF media) for 4 hours. Cells were lysed in 0.5 M NaOH for at least 30 min at 37°C and radioactivity analyzed.
(§3) The % inhibition of the compound evaluated was determined for at least three different concentrations and the IC50 value evaluated from the dose response curve. […] CPM(control) is in units of counts per minute and is a number expressing the amount of [^3H]thymidine incorporated onto the DNA when cells are grown in the absence of test compound as measured by liquid scintillation counting.

[5] = system: HL60; test: Inhibition of cancer cell growth as measured by cell number, HL60; assay type: cell-based; settings: Homo sapiens, read-out: IC50 HL60
[6] = system: A431; test: Inhibition of cancer cell growth as measured by cell number, A431; assay type: cell-based, human; settings: Homo sapiens, A-431, 48 h, Table 6;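 further: human A431 line, picked because it overexpresses epidermal growth factor receptor (EGFR)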
Source text: (§4) The cell lines were chosen since they overexpressed epidermal growth factor receptor (EGFR) (i.e. A431) or HER2/neu (SKBR3), or had little to no expression of the these receptors (SW620, LOX, MCF7).

[7] = system: PC3; test: Inhibition of cancer cell growth as measured by cell number, PC3; assay type: cell-based; settings: Homo sapiens, read-out: IC50 PC3
[8] = system: LX1; test: Inhibition of cancer cell growth as measured by cell number, LX1; assay type: cell-based; settings: Homo sapiens, read-out: IC50 LX1
[9] = system: CCL228; test: Inhibition of cancer cell growth as measured by cell number, CCL228; assay type: cell-based; settings: Homo sapiens, read-out: IC50 CCL228
[10] = system: HCT15; test: Inhibition of cancer cell growth as measured by cell number, HCT15; assay type: cell-based; settings: Homo sapiens, read-out: IC50 HCT15
[11] = system: LS174T; test: Inhibition of cancer cell growth as measured by cell number, LS174T; assay type: cell-based; settings: Homo sapiens
[12] = system: CX1; test: Inhibition of cancer cell growth as measured by cell number, CX1; assay type: cell-based; settings: Homo sapiens, read-out: IC50 CX1
[13] = system: MCF7; test: Inhibition of cancer cell growth as measured by cell number, MCF7; assay type: cell-based, human; settings: Homo sapiens, MCF7, 48 h, read-out: IC50 MCF7, cell number, Sulforhodamine B, 48 hours exposure; Table 5;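 further: MCF7 was included as a line with little or no EGFR or HER2/neu expression, in contrast to the receptor-overexpressing lines of the panel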
Source text: as §4

[14] = system: SW620; test: Inhibition of cancer cell growth as measured by cell number, SW620; assay type: cell-based, human; settings: Homo sapiens, SW-620, 48 h, Table 4;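 further: SW620 was included as a cell line with little or no EGFR or HER2/neu expression, in contrast to receptor-overexpressing lines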
Source text: as §4

[15] = system: CCRF-CFM; test: Inhibition of cancer cell growth as measured by cell number, CCRF-CFM; assay type: cell-based; settings: Homo sapiens, read-out: IC50 CCRF-CFM
[16] = system: DU145; test: Inhibition of cancer cell growth as measured by cell number, DU145; assay type: cell-based; settings: Homo sapiens, read-out: IC50 DU145
[17] = system: T47D; test: Inhibition of cancer cell growth as measured by cell number, T47D; assay type: cell-based; settings: Homo sapiens
[18] = system: MIP; test: Inhibition of cancer cell growth as measured by cell number, MIP; assay type: cell-based; settings: Homo sapiens; cell number, Sulforhodamine B, 48 hours exposure; Table 4; read-out: IC50 MIP
[19] = system: A549; test: Inhibition of cancer cell growth as measured by cell number, A549; assay type: cell-based; settings: Homo sapiens, read-out: IC50 A549
[20] = system: LNCAP; test: Inhibition of cancer cell growth as measured by cell number, LNCAP; assay type: cell-based; settings: Homo sapiens
[21] = system: B7474; test: Inhibition of cancer cell growth as measured by cell number, B7474; assay type: cell-based; settings: Homo sapiens, read-out: IC50 B7474
[22] = system: LOX; test: Inhibition of cancer cell growth as measured by cell number, LOX; assay type: cell-based, human; settings: Homo sapiens, LOX, 48 h, Table 6;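 further: LOX cells served as a line with low or absent EGFR and HER2/neu expression, in contrast to receptor-overexpressing lines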
Source text: as §4

[23] = system: NEC; test: Inhibition of cancer cell growth as measured by cell number, NEC; assay type: cell-based; settings: Homo sapiens, read-out: IC50 NEC
[24] = molecular target: epidermal growth factor receptor kinase (Homo sapiens, UniProt P00533); test: biochemical
Sequence of epidermal growth factor receptor kinase (P00533 25-1210): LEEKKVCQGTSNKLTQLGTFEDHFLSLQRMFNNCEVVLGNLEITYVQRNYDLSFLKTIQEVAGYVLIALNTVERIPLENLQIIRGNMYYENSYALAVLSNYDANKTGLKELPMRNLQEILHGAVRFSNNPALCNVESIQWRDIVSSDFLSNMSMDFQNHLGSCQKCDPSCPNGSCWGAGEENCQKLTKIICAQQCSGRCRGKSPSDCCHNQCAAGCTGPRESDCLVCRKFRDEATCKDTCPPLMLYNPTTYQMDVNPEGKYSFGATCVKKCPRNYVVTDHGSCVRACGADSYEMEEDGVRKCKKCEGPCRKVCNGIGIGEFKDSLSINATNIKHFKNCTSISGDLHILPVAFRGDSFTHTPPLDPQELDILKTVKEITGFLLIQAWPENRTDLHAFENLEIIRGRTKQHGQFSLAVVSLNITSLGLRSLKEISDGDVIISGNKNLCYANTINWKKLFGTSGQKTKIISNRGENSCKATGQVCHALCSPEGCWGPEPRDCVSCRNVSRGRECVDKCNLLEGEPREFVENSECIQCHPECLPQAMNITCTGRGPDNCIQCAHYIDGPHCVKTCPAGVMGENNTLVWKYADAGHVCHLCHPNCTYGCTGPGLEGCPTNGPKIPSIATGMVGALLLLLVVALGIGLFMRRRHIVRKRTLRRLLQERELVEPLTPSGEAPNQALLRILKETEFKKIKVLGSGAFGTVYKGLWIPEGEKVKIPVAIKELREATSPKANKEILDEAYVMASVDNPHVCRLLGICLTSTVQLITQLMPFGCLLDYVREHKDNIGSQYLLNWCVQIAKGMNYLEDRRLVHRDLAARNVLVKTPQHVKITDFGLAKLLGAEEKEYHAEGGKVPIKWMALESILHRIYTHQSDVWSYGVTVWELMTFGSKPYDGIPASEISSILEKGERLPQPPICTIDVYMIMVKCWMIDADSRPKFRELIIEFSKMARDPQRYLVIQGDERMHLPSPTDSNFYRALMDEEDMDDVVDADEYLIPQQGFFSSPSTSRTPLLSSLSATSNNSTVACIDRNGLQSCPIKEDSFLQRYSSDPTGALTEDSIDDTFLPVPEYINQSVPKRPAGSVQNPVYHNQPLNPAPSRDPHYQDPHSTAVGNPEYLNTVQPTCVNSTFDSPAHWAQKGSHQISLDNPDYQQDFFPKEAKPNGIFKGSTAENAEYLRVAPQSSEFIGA

[25] = system: A431; test: Inhibition of cell growth by incorporation of [3H]-thymidine, A431; assay type: cell-based, human; settings: Homo sapiens
[26] = system: COLO205; test: Inhibition of cancer cell growth as measured by cell number, COLO205; assay type: cell-based; settings: Homo sapiens, read-out: IC50 COLO205
[27] = system: CACO2; test: Inhibition of cancer cell growth as measured by cell number, CACO2; assay type: cell-based; settings: Homo sapiens, read-out: IC50 CACO2
[28] = system: A2780DDP; test: Inhibition of cancer cell growth as measured by cell number, A2780DDP; assay type: cell-based; settings: Homo sapiens, read-out: IC50 A2780DDP
[29] = system: SKBR3; test: Inhibition of cancer cell growth as measured by cell number, SKBR3; assay type: cell-based, human; settings: Homo sapiens, SK-BR-3, 48 h, read-out: IC50 SKBR3, cell number, Sulforhodamine B, 48 hours exposure; Table 7;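 further: SK-BR-3 cells were selected as a line overexpressing HER2/neu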
Source text: as §4

[30] = system: human epidermoid tumors (A431); test: In vivo inhibition of the growth of human epidermoid tumors (A431); settings: 80 mg/kg administered on days 1, 5, and 9, IP
How it was run: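 Female BALB/c nu/nu mice from Charles River were injected subcutaneously with 5 X 10^6 human epidermoid (A431) tumor cells. Once tumors weighed 100 to 150 mg, animals were randomized into treatment groups on day zero, and untreated controls were included. Tumor mass, calculated as (length X width^2)/2, was measured every 7 days for 28 days after staging. Relative growth was mean mass on days 7, 14, 21 and 28 divided by the day-zero mean.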

[31] = system: HTB161; test: Inhibition of cancer cell growth as measured by cell number, HTB161; assay type: cell-based; settings: Homo sapiens, read-out: IC50 HTB161
[32] = system: SKBR3; test: Inhibition of cell growth by incorporation of [3H]-thymidine, SKBR3; assay type: cell-based, human; settings: Homo sapiens, SK-BR-3, [3H]-thymidine incorporation
Procedure: as §1, §2, §3

[33] = system: NEU-3T3; test: Inhibition of cell growth by incorporation of [3H]-thymidine, Neu-3T3; assay type: cell-based, mouse; settings: Mus musculus, [3H]-thymidine incorporation
Procedure: as §1, §2, §3

[34] = cell number, Sulforhodamine B, 48 hours exposure, Table 4
[35] = cell number, Sulforhodamine B, 48 hours exposure, Table 6

With `C=CC(=O)Nc1ccc2ncc(C#N)c(Nc3cccc(Br)c3)c2c1` [Example 18, N-[4-[(3-Bromophenyl)amino]-3-cyano-6-quinolinyl]-2-propenamide] the IC50 [1] was > 100000 nM, the IC50 ([2]; SW948, 48 h) was 1.94 µg/mL (≈ 4.93 µM) and the IC50 ([3]; 48 h) was 0.628 µg/mL (≈ 1.6 µM). For the same compound, the IC50 [4] was 7 nM, the IC50 ([5]; HL-60, 48 h) was 1.43 µg/mL (≈ 3.63 µM) and the IC50 ([6]; read-out: IC50 A431, cell number, Sulforhodamine B, 48 hours exposure) was 0.249 µg/mL (≈ 0.633 µM). It also gave an IC50 ([7]; PC-3, 48 h) of 2.35 µg/mL (≈ 5.97 µM), an IC50 ([8]; LX-1, 48 h) of 1.12 µg/mL (≈ 2.84 µM) and an IC50 ([9]; 48 h) of 1.17 µg/mL (≈ 2.98 µM). For the same compound, the IC50 ([10]; HCT-15, 48 h) was 1.67 µg/mL (≈ 4.25 µM), the IC50 ([11]; 48 h, read-out: IC50 LS174T) was 1.59 µg/mL (≈ 4.05 µM) and the IC50 ([12]; CX-1, 48 h) was 1.56 µg/mL (≈ 3.97 µM). The IC50 [13] was 2.17 µg/mL (≈ 5.52 µM), the IC50 ([14]; read-out: IC50 SW620, cell number, Sulforhodamine B, 48 hours exposure) was 1.4 µg/mL (≈ 3.55 µM) and the IC50 ([15]; 48 h) was 1.04 µg/mL (≈ 2.64 µM). The IC50 ([16]; DU-145, 48 h) was 0.322 µg/mL (≈ 0.818 µM), the IC50 ([17]; 48 h, read-out: IC50 T47D) was 1.31 µg/mL (≈ 3.34 µM) and the IC50 [18] was 1.47 µg/mL (≈ 3.74 µM). The IC50 ([19]; A549, 48 h) was 1.61 µg/mL (≈ 4.1 µM), the IC50 ([20]; 48 h, read-out: IC50 LNCAP) was 0.146 µg/mL (≈ 0.372 µM) and the IC50 ([21]; 48 h) was 0.152 µg/mL (≈ 0.387 µM). The IC50 ([22]; read-out: IC50 LOX, cell number, Sulforhodamine B, 48 hours exposure) was 0.0851 µg/mL (≈ 0.216 µM), the IC50 ([23]; 48 h) was 1.41 µg/mL (≈ 3.6 µM) and the IC50 [24] was 0.021 nM. It also gave an IC50 ([25]; A-431, read-out: IC50 A431) of 0.01 nM, an IC50 ([26]; COLO 205, 48 h) of 1.9 µg/mL (≈ 4.84 µM) and an IC50 ([27]; Caco-2, 48 h) of 0.576 µg/mL (≈ 1.46 µM). For the same compound, the IC50 ([28]; 48 h) was 0.884 µg/mL (≈ 2.25 µM), the IC50 [29] was 1.85 µg/mL (≈ 4.71 µM) and the reduced tumor size ([30]; day 7) was 29%. For the same compound, the reduced tumor size ([30]; day 14, p <0.01) was 45%, the “Tumor growth versus control” value ([30]; days 21 and 28) was “not reduced versus control” and the IC50 ([31]; 48 h) was 0.415 µg/mL (≈ 1.05 µM).

`CC#CC(=O)Nc1ccc2ncc(C#N)c(Nc3ccc(Br)c(Br)c3)c2c1` [Example 22, N-[4-[(3,4-dibromophenyl)amino]-3-cyano-6-quinolinyl]-2-butynamide] was tested, and the IC50 ([2]; SW948, cell number, Sulforhodamine B, 48 hours exposure, Table 5) was 0.593 µg/mL (≈ 1.23 µM), the IC50 [32] was > 50000 nM and the IC50 [3, 34] was 0.0567 µg/mL (≈ 0.117 µM). It also gave an IC50 ([4]; [3H]-thymidine incorporation) of 35 nM, an IC50 ([5]; HL-60, cell number, Sulforhodamine B, 48 hours exposure, Table 7) of 0.608 µg/mL (≈ 1.26 µM) and an IC50 ([6]; cell number, Sulforhodamine B, 48 hours exposure, read-out: IC50 A431) of 0.0443 µg/mL (≈ 0.0915 µM). It also gave an IC50 ([7]; PC-3, cell number, Sulforhodamine B, 48 hours exposure, Table 7) of 0.695 µg/mL (≈ 1.44 µM), an IC50 ([8]; LX-1, cell number, Sulforhodamine B, 48 hours exposure, Table 6) of 0.81 µg/mL (≈ 1.67 µM) and an IC50 ([9]; cell number, Sulforhodamine B, 48 hours exposure, Table 5) of 0.255 µg/mL (≈ 0.527 µM). The IC50 ([10]; HCT-15, cell number, Sulforhodamine B, 48 hours exposure, Table 5) was 0.372 µg/mL (≈ 0.769 µM), the IC50 ([11]; cell number, Sulforhodamine B, 48 hours exposure, Table 5, read-out: IC50 LS174T) was 0.847 µg/mL (≈ 1.75 µM) and the IC50 ([12]; CX-1, cell number, Sulforhodamine B, 48 hours exposure, Table 4) was 0.775 µg/mL (≈ 1.6 µM). For the same compound, the IC50 ([14]; cell number, Sulforhodamine B, 48 hours exposure, read-out: IC50 SW620) was 0.526 µg/mL (≈ 1.09 µM), the IC50 ([15]; cell number, Sulforhodamine B, 48 hours exposure, Table 7) was 0.403 µg/mL (≈ 0.833 µM) and the IC50 ([16]; DU-145, cell number, Sulforhodamine B, 48 hours exposure, Table 7) was 0.265 µg/mL (≈ 0.548 µM). The IC50 ([17]; cell number, Sulforhodamine B, 48 hours exposure, Table 6, read-out: IC50 T47D) was 0.704 µg/mL (≈ 1.45 µM), the IC50 [18] was 0.378 µg/mL (≈ 0.782 µM) and the IC50 ([19]; A549, cell number, Sulforhodamine B, 48 hours exposure, Table 6) was 0.375 µg/mL (≈ 0.775 µM). The IC50 ([20]; cell number, Sulforhodamine B, 48 hours exposure, Table 7, read-out: IC50 LNCAP) was 0.722 µg/mL (≈ 1.49 µM), the IC50 [21, 35] was 0.314 µg/mL (≈ 0.648 µM) and the IC50 ([22]; cell number, Sulforhodamine B, 48 hours exposure, read-out: IC50 LOX) was 0.0225 µg/mL (≈ 0.0465 µM). For the same compound, the IC50 [23, 35] was 0.492 µg/mL (≈ 1.02 µM), the IC50 [33] was > 50000 nM and the IC50 [24] was 3000 nM. It also gave an IC50 ([25]; A-431, [3H]-thymidine incorporation, A431, read-out: IC50 A431) of 150 nM, an IC50 ([26]; COLO 205, cell number, Sulforhodamine B, 48 hours exposure, Table 4) of 4.3 µg/mL (≈ 8.89 µM) and an IC50 ([27]; Caco-2, cell number, Sulforhodamine B, 48 hours exposure, Table 5) of 0.475 µg/mL (≈ 0.982 µM). It also gave an IC50 [28, 34] of 0.211 µg/mL (≈ 0.436 µM) and an IC50 [31, 34] of 0.248 µg/mL (≈ 0.512 µM).
